According to patent US7056908B2, “Pharmaceutical compositions and methods for preventing skin tumor formation and causing regression of existing tumors” (priority 1991, dated 2006):

Key:
Assay type in all cases: cell-based, mouse
[1] = tested on: 308 cells; experiment: Cornified envelope formation in 308 cells; settings: 1.4 mM Ca2+ medium, 3 days
Description: (§1) Cornified Envelope Quantitation. Keratinocytes were analyzed for cornified envelope formation as described (Nagae, S. et al, “Effect of retinoic acid on cornified envelope formation: difference between spontaneous envelope formation in vivo or in vitro and expression of envelope competence,” J. Invest., Dermatol., 89: 51–58, 1987), with minor modifications. Floating cells were harvested by collecting culture medium from each 60 mm dish and combining with two washes using phosphate-buffered saline without Ca^2+ and Ms^+2 (PBS). Cells were pelleted for 5 minutes at 1000 rpm in a benchtop clinical centrifuge and resuspended in 100 μl of lysis buffer (2% sodium dodecyl sulfate (SDS) and 20 mM dithiothreitol in PBS). Attached cells were harvested in 250 μl lysis buffer, combined with the preparation of floating cells, and incubated at 95° for 10 minutes. The non-solubilized, intact cornified envelopes, characteristic of terminally differentiated keratinocytes, were counted using a hemocytometer (Nagae, S. et al, “Effect of retinoic acid on cornified envelope formation: difference between spontaneous envelope formation in vivo or in vitro and expression of envelope competence,” J. Invest. Dermatol., 89: 51–58, 1987).
(§2) Cornified envelope formation was also determined in cultures of staurosporine-treated neoplastic cells. […]

[2] = tested on: SP-1 cells; experiment: Epidermal transglutaminase activity in neoplastic keratinocytes; settings: 24 hours
[3] = tested on: 308 cells; experiment: Morphological differentiation of 308 neoplastic keratinocyte cell line; settings: for morphological changes: 24 hours, 10 nM staurosporine or 160 nM TPA
[4] = tested on: SP-1 cells; experiment: Morphological differentiation of SP-1 neoplastic keratinocyte cell line; settings: for morphological changes: 24 hours, 10 nM staurosporine or 160 nM TPA
[5] = tested on: 40 kD protein (pp40); experiment: 32P phosphoprotein analysis in digitonin-permeabilized keratinocytes; settings: for phosphorylation of band at about 40 kD (pp40): 160 nM TPA or 10 nM staurosporine
Description: Cell Permeabilization and ^32P-Labelled Phosphoprotein Analysis. Primary mouse keratinocytes were permeabilized with digitonin to facilitate uptake of ^32P-ATP essentially as described (Erusalimsky, J. D. et al, “Diacylglycerols, and phorbol esters rapidly stimulate the phosphorylation of an Mr=80,000 protein kinase C substrate in permeabilized 3T3 cells,” J. Biol. Chem., 263: 19188–19194, 1988). To first assess the efficacy of permeabilization at different digitonin concentrations, 5–10 μg/ml of the DNA-binding fluorochrome propidium iodide (Jones, K. H. et al, “An improved method to determine cell viability by simultaneous staining with fluorescein diacetate-propidium iodide,” J. Histochem. Cytochem., 33: 77–79, 1985) was added to permeabilization buffer instead of labelled ATP. After incubation at 37° for 1–3 minutes, the buffer was removed and cells washed 3–4 times with PBS prior to fluorescence microscopy. […] Following ^32P-labelling, cells were immediately harvested and lysates subject to SDS/8.5% polyacrylamide gel electrophoresis. Approximate molecular weights were determined using pre-stained protein markers (Amersham, Arlington Heights, Ill.). Dried gels were exposed to Kodak X-Omat AR film at −70° prior to development.
Cells were harvested immediately and proteins separated by SDS/PAGE. Dried gels were exposed to Kodak X-Omat AR film at −70° for 12–24 hours prior to development.

[6] = tested on: primary keratinocytes; experiment: Epidermal transglutaminase activity in primary keratinocytes; settings: 9 hours, 1.4 mM Ca2+ medium; for increase in epidermal transglutaminase activity: 8 day old cultures
Description: Enzyme Assays. Activity of epidermal transglutaminase was determined by measuring cross-linking of ^3H-putrescine to dimethylcasein (20). Cell lysates were incubated at […] for 10 minutes to inactivate tissue transglutaminase. Ornithine decarboxylase activity of cell lysates was determined by quantifying release of ^14CO2 from ^14C-ornithine (Sako, T. et al, “Partial parallelism and partial blockade by bryostatin 1 of effects of phorbol ester tumor promoters on primary mouse epidermal cells,” Cancer Res., 47: 5445–5450, 1987).
Epidermal transglutaminase activity is elevated in terminally differentiating keratinocytes both in vivo and in vitro. […] Control cultures (0 nM dose) were treated with 0.1% DMSO. Each point is the average of duplicate dishes with the range indicated by error bars.

[7] = tested on: SP-1 cells; experiment: Cornified envelope formation in SP-1 cells; settings: 1.4 mM Ca2+ medium, 3 days
Description: as §1, §2

[8] = tested on: primary keratinocytes; experiment: Morphological changes and detachment of primary keratinocytes; settings: for alteration of cell morphology first detectable after: 10 nM staurosporine or 160 nM TPA, 0.05 mM Ca2+ medium
[9] = doses ranging from 1.6 nM to 16 uM
[10] = morphological response to staurosporine

Which cornified envelope formation ([1]; 160 nM TPA) does the source give for CCCCCCCCCCCCCC(=O)O[C@@H]1[C@@H](C)[C@@]2(O)[C@@H](C=C(CO)C[C@]3(O)C(=O)C(C)=C[C@@H]23)[C@H]2C(C)(C)[C@]12OC(C)=O [TPA, 12-0-tetradecanoylphorbol-13-acetate, reference compound] here?
The cornified envelope formation was “not induced”.

What about the “effect on epidermal transglutaminase activity” value ([2]; any dose ranging from 10 pM to 10 μM) of the same compound?
Its value is “no detectable effect”.

What about the morphological changes [3] of the same compound?
The morphological changes was “does not appreciably alter the appearance”.

What about the inducing morphological differentiation [3, 9] of the same compound?
Its inducing morphological differentiation is “ineffective”.

And the morphological changes [4]?
The morphological changes was “does not appreciably alter the appearance”.

What about the inducing morphological differentiation [4, 9] of the same compound?
The inducing morphological differentiation was “ineffective”.

And the “phosphorylation of band at about 40 kD (pp40)” value ([5]; 3 minutes)?
The value was “enhanced phosphorylation”.

And the “increase in epidermal transglutaminase activity” value ([6]; 100 and 1000 nM)?
Its value is 5 fold.

And the cornified envelope formation ([7]; 160 nM TPA)?
The cornified envelope formation was “not induced”.

What about the “alteration of cell morphology first detectable after” value [8] of the same compound?
Its value is 20 minutes.

What about the “cells rounded-up and detached from the substrate” value ([8]; 160 nM TPA, after 24 hours) of the same compound?
The value was “about 50%”.

What does the source list for CN[C@@H]1C[C@H]2O[C@@](C)([C@@H]1OC)n1c3ccccc3c3c4c(c5c6ccccc6n2c5c31)C(=O)NC4 [staurosporine]?
induction of cornified envelopes ([1]; 10 nM staurosporine): 60 fold; maximum induction of epidermal transglutaminase activity ([2]; 100 nM, 5 day old SP-1 cells): 50 fold; morphological changes [3]: morphological changes similar to those seen in primary cells; treatment time required for a maximal response [3, 10]: at least 48 hours; morphological changes [4]: morphological changes similar to those seen in primary cells; treatment time required for a maximal response [4, 10]: at least 48 hours; overall protein phosphorylation ([5]; 10 nM staurosporine, 3 minutes): reduction in overall protein phosphorylation; effect of co-exposure on TPA-mediated phosphorylation of pp40 ([5]; 160 nM TPA and 10 nM staurosporine): blocked the TPA-mediated phosphorylation; phosphorylation of band at about 40 kD (pp40) ([5]; 3 minutes): not detected; inducing phosphorylation of pp40 ([5]; additional doses ranging from 0.1 to 5 nM): ineffective; increase in epidermal transglutaminase activity ([6]; 10 nM): 4 fold; dose to which induction of transglutaminase activity is restricted [6]: 10 nM; induction of cornified envelopes ([7]; 10 nM staurosporine): 10 fold; alteration of cell morphology first detectable after [8]: 20 minutes; cells detached from the substrate ([8]; 10 nM staurosporine, 24 hours): nearly all cells; treatment time required for a maximal response [8, 10]: 24 h
